Measured values from US7557101B2, “4,5,6,7-tetrahydro-thieno[3,2-c] pyridine derivatives” (Hoffman-La Roche Inc., priority 2006, dated 2009).

Target: T1, human H3R (Homo sapiens, UniProt Q9Y5N1)
T1 construct: expressed in transfected cells; host or cells: CHO cells
Assay: Competition binding assay with 3H-(R)α-methylhistamine on membranes of the human H3R-CHO cell line
Conditions: competition with 3H(R)α-methylhistamine (1 nM), Ki calculated from IC50 by Cheng-Prusoff
Protocol: Binding Assay with ^3H—(R)α-methylhistamine
Saturation binding experiments were performed using HR3-(CHO membranes prepared as described in Takahashi, K, Tokita, S., Kotani, H. (2003) J. Pharmacol. Exp. Therapeutics 307, 213-218.
An appropriate amount of membrane (60 to 80 μg protein/well) was incubated with increasing concentrations of ^3H(R)α-Methylhistamine di-hydrochloride (0.10 to 10 nM). Non specific binding was determined using a 200 fold excess of cold (R)α-Methylhistamine dihydrobromide (500 nM final concentration). The incubation was carried out at room temperature (in deep-well plates shaking for three hours). The final volume in each well was 250 μl. The incubation was followed by rapid filtration on GF/B filters (pre-soaked with 100 μl of 0.5% PEI in Tris 50 mM shaking at 200 rpm for two hours). The filtration was made using a cell-harvester and the filter plates were then washed five times with ice cold washing buffer containing 0.5 M NaCl. After harvesting, the plates were dried at 55° C. for 60 min, then we added scintillation fluid (Microscint 40, 40 microl in each well) and the amount of radioactivity on the filter was determined in Packard top-counter after shaking the plates for two hours at 200 rpm at room temperature.
Binding Buffer: 50 mM Tris-HCl pH 7.4 and 5 mM MgCl2×6H2O pH 7.4. Washing Buffer: 50 mM Tris-HCl pH 7.4 and 5 mM MgCl2×6H2O and 0.5 M NaCl pH 7.4.
Indirect measurement of affinity of H3R inverse agonists: twelve increasing concentrations (ranging from 10 μM to 0.3 nM) of the selected compounds were always tested in competition binding experiments using membrane of the human H3R—CHO cell line. An appropriate amount of protein, e.g. approximately 500 cpm binding of RAMH at Kd, were incubated for 1 hour at room temperature in 250 μl final volume in 96-well plates in presence of ^3H(R)α-methylhistamine (1 nM final concentration=Kd). Non-specific binding was determined using a 200 fold excess of cold (R)α-methylhistamine dihydrobromide.
All compounds were tested at a single concentration in duplicate. […] The concentration at which 50% inhibition of the radioligand ^3H(R)α-methylhistamine is obtained (the IC50) is determined from the linear regression of a plot of the logarithm of the concentration versus percent inhibition measured for the different concentrations. Ki's were calculated from IC50 based on Cheng-Prusoff equation (Cheng, Y, Prusoff, W H (1973) Biochem Pharmacol 22, 3099-3108): Ki=IC50/[1+D/Kd] wherein D is the concentration of the radioligand and Kd is the binding constant for the radioligand binding to the receptor under the conditions used in the competition experiment.

T1 sequence (Q9Y5N1 whole entry): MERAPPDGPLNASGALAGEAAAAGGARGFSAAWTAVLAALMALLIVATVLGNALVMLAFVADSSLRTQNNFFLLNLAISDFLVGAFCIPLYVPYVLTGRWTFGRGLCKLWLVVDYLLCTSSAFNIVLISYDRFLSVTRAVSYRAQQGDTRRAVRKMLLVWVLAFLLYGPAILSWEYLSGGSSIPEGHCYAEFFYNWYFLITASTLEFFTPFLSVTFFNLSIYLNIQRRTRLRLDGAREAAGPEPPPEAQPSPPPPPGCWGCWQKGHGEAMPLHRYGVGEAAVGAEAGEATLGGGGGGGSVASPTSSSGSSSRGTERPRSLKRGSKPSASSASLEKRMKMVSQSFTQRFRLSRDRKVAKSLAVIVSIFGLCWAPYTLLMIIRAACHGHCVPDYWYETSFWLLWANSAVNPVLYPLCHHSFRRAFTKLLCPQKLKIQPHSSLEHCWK

SMILES	Ki
O=C(NCc1ccccc1)N1CCc2sc(OCCCN3CCCC3)cc2C1 [Example 48, 2-(3-pyrrolidin-1-yl-propoxy)-6,7-dihydro-4H-thieno[3,2-c]pyridine-5-carboxylic acid benzylamide]	31.7 nM
CCCC(=O)N1CCc2sc(OCCCN3CCCCC3)cc2C1 [Example 33, 1-[2-(3-piperidin-1-yl-propoxy)-6,7-dihydro-4H-thieno[3,2-c]pyridin-5-yl]-butan-1-one]	44.4 nM
O=C(N1CCOCC1)N1CCc2sc(OCCCN3CCCCC3)cc2C1 [Example 1, Morpholin-4-yl-[2-(3-piperidin-1-yl-propoxy)-6,7-dihydro-4H-thieno[3,2-c]pyridin-5-yl]-methanone]	35.7 nM

Results, then the molecule that gave them:

Ki	SMILES
27.3 nM	Cc1ccccc1S(=O)(=O)N1CCc2sc(OCCCN3CCCC3)cc2C1 [Example 56, 2-(3-pyrrolidin-1-yl-propoxy)-5-(toluene-2-sulfonyl)-4,5,6,7-tetrahydro-thieno[3,2-c]pyridine]
21.7 nM	CC1CCC(CC(=O)N2CCc3sc(OC4CCN(C(C)C)C4)cc3C2)CC1 (centres unmarked) [Example 90, 1-[2-(1-isopropyl-pyrrolidin-3-yloxy)-6,7-dihydro-4H-thieno[3,2-c]pyridin-5-yl]-2-(4-methyl-cyclohexyl)-ethanone]
